For 42 compounds, IC50 results are on record in US11524966B1 (Valo Early Discovery, Inc., priority 2017, dated 2022).

The assay concerns the target T1, USP28 (His-tagged USP28-FL-mammalian) (Homo sapiens, UniProt Q96RU2).
T1 construct: Expression of USP28 (1-1077)-TEV-6*His (pTT5 vector); made in house; host or cells: Expi293f cells (pTT5 vector)
T1 sequence (Q96RU2 1-1077): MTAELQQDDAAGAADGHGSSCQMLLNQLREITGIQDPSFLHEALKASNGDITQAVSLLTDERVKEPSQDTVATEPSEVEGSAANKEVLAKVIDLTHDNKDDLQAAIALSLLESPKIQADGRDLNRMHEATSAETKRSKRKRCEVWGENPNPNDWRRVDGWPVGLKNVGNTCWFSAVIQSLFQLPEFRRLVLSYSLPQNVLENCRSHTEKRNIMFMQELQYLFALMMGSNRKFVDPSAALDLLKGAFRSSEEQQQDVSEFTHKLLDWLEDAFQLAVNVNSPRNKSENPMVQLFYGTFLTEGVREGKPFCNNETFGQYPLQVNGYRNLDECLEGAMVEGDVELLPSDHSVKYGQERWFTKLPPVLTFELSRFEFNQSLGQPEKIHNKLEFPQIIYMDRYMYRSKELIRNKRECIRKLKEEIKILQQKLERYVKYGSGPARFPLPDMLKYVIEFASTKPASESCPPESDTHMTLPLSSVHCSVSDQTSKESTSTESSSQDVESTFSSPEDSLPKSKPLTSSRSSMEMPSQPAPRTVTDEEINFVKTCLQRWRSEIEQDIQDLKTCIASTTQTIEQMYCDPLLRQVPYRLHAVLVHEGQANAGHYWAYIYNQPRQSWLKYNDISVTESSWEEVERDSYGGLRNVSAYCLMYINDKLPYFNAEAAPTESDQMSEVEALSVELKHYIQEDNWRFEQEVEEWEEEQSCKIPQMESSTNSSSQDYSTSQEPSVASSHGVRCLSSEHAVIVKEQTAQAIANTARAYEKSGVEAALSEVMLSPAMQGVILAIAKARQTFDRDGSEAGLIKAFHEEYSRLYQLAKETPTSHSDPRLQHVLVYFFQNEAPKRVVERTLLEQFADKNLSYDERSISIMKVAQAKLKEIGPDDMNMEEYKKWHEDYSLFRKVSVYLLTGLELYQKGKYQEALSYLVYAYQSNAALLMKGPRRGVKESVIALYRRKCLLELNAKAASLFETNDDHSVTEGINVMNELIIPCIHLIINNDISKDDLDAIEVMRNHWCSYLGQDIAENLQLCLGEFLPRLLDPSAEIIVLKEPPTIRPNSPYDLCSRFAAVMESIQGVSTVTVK
Description: Ubiquitin-Rhodamine 110 Assay for USP28 Activity, Example A-1(a). It is filed as biochemical. Particulars: Ubiquitin-Rhodamine 110 assay, read-out: USP28 A-1(a) IC50 range. In short, it runs like this: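 Full-length His-tagged human USP28 (1-1077, Expi293f-expressed), […], with 25 nM Ub-Rh110 (<<Km) in pH 8.0 Tris buffer with BME, BGG, Triton X-100. 10-point dilutions (25 μM-1.3 nM), 45 min at room temperature, citric acid stop, fluorescence 485/535 nm; IC50 by 4-parameter fit.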

Each structure is given as a SMILES string. Read-outs that look alike come from different tables or passages of the source. Some results are limits rather than exact numbers.

As usually defined, the IC50 is the concentration that gives 50% inhibition. With `Cc1cnc2c(N)c(C(=O)N[C@H]3CCc4cc(N5CCNC[C@@H](O)C5)ccc4C3)sc2n1` (single isomer, unassigned) [Example 7-4], the IC50 (Example A-1(a)) was 0.05 to 0.2 µM.

For the compound `Cc1cnc2c(N)c(C(=O)N[C@@H]3CCc4cc(N5CCNC[C@@H](O)C5)ccc4C3)sc2n1` (single isomer, unassigned) [Example 7-5], the half-inhibitory concentration (IC50) (Example A-1(a)) fell in the range of 0.05 to 0.2 µM.

With `Cc1cnc2c(N)c(C(=O)N[C@H]3CCc4cc(N5CCNC[C@H](O)C5)ccc4C3)sc2n1` (single isomer, unassigned) [Example 7-6], where the note is “Example A-1(a)”, the IC50 was in the range of 0.2 to 2 µM.

On to `Cc1cnc2c(N)c(C(=O)N[C@@H]3CCc4cc(N5CCNC[C@H](O)C5)ccc4C3)sc2n1` (single isomer, unassigned) [Example 7-7], for which the IC50 (Example A-1(a)) fell in the range of 0.2 to 2 µM.

`Cc1ccc2c(N)c(C(=O)N[C@H]3CCc4cc(N5CCN[C@H](CO)C5)ccc4C3)sc2n1` (single isomer, unassigned) [Example 7-8]: under “Example A-1(a)”, the IC50 fell in the range of 0.2 to 2 µM.

For `Cc1ccc2c(N)c(C(=O)N[C@H]3CCc4cc(N5CCN[C@@H](CO)C5)ccc4C3)sc2n1` (single isomer, unassigned) [Example 7-9], the IC50 (Example A-1(a)) fell in the range of 0.2 to 2 µM.

As to `Cc1ccc2c(N)c(C(=O)N[C@@H]3CCc4cc(N5CCN[C@H](CO)C5)ccc4C3)sc2n1` (single isomer, unassigned) [Example 7-10], under “Example A-1(a)”, the IC50 is 0.05 to 0.2 µM.

Consider `Cc1ccc2c(N)c(C(=O)N[C@@H]3CCc4cc(N5CCN[C@@H](CO)C5)ccc4C3)sc2n1` (single isomer, unassigned) [Example 7-11], for which the IC50 (Example A-1(a)) lay in the range of 0.05 to 0.2 µM.

Take `Cc1ccc2c(N)c(C(=O)N[C@H]3COc4cc(O[C@@H]5COC6(CNC6)C5)ccc4C3)sc2n1` (single isomer, unassigned) [Example 9-1]: where the note is “Example A-1(a)”, the IC50 fell in the range of 0.001 to 0.05 µM.

For `Cc1ccc2c(N)c(C(=O)N[C@H]3COc4cc(O[C@H]5COC6(CNC6)C5)ccc4C3)sc2n1` (single isomer, unassigned) [Example 9-2], where the note is “Example A-1(a)”, the IC50 was 0.001 to 0.05 µM.

For the compound `CO[C@H]1CN(c2cc(F)c3c(c2)OC[C@H](NC(=O)c2sc4nc(C)ccc4c2N)C3)C[C@@H]1N` (single isomer, unassigned) [Example 10-3], the IC50 (Example A-1(a)) was in the range of 0.001 to 0.05 µM.

For `Cc1nc2sc(C(=O)N[C@H]3CCc4cc(N5CC6CCC(C5)N6)ccc4C3)c(N)c2cc1F` (single isomer, unassigned) [Example 11-3], the IC50 (Example A-1(a)) lay within 0.05 to 0.2 µM.

As to `Cc1nc2sc(C(=O)N[C@@H]3CCc4cc(N5CC6CCC(C5)N6)ccc4C3)c(N)c2cc1F` (single isomer, unassigned) [Example 11-4], the IC50 (Example A-1(a)) was 0.001 to 0.05 µM.

`COc1ccc2c(N)c(C(=O)N[C@H]3CCc4cc(N5CC6CCC(C5)N6)ccc4C3)sc2n1` (single isomer, unassigned) [Example 11-5]: the IC50 (Example A-1(a)) fell in the range of 0.001 to 0.05 µM.

Regarding `COc1ccc2c(N)c(C(=O)N[C@@H]3CCc4cc(N5CC6CCC(C5)N6)ccc4C3)sc2n1` (single isomer, unassigned) [Example 11-6], the IC50 (Example A-1(a)) fell in the range of 0.2 to 2 µM.

Regarding `Cc1cnc2c(N)c(C(=O)N[C@H]3CCc4cc(N5CC6CCC(C5)N6)ccc4C3)sc2n1` (single isomer, unassigned) [Example 11-7], the IC50 (Example A-1(a)) was in the range of 0.05 to 0.2 µM.

As to `Cc1cnc2c(N)c(C(=O)N[C@@H]3CCc4cc(N5CC6CCC(C5)N6)ccc4C3)sc2n1` (single isomer, unassigned) [Example 11-8], the IC50 (Example A-1(a)) is 0.2 to 2 µM.

Consider `CCn1ccc2cc(C(=O)N[C@H]3CCc4cc(N5CC6CCC(C5)N6)ccc4C3)cnc21` (single isomer, unassigned) [Example 11-9], for which the IC50 (Example A-1(a)) is 0.2 to 2 µM.

For `CCn1ccc2cc(C(=O)N[C@@H]3CCc4cc(N5CC6CCC(C5)N6)ccc4C3)cnc21` (single isomer, unassigned) [Example 11-10], the IC50 (Example A-1(a)) was 0.05 to 0.2 µM.

With `Cc1ccc2c(N)c(C(=O)N[C@H]3CCc4cc(N5CCNCC5)cc(F)c4C3)sc2n1` (single isomer, unassigned) [Example 11-11], the IC50 (Example A-1(a)) was in the range of 0.2 to 2 µM.

For `Cc1ccc2c(N)c(C(=O)N[C@@H]3CCc4cc(N5CCNCC5)cc(F)c4C3)sc2n1` (single isomer, unassigned) [Example 11-12], where the note is “Example A-1(a)”, the IC50 was 0.001 to 0.05 µM.

For `Cc1cnc2c(N)c(C(=O)N[C@H]3CCc4cc(N5CC6CCC(C5)N6)cc(F)c4C3)sc2n1` (single isomer, unassigned) [Example 11-13], the IC50 (Example A-1(a)) lay in the range of 0.2 to 2 µM.

Regarding `Cc1cnc2c(N)c(C(=O)N[C@@H]3CCc4cc(N5CC6CCC(C5)N6)cc(F)c4C3)sc2n1` (single isomer, unassigned) [Example 11-14], the IC50 (Example A-1(a)) is 0.001 to 0.05 µM.

In the case of `Cc1ccc2c(N)c(C(=O)N[C@@H]3COc4cc(N5CCNCC5)ccc4[C@@H]3C)sc2n1` (single isomer, unassigned) [Example 11-18], the IC50 (Example A-1(a)) is above 2 µM.

Regarding `CCn1ccc2cc(C(=O)N[C@@H]3CCc4cc(N5CC6CCC(C5)N6)ccc4C3)nnc21` (single isomer, unassigned) [Example 11-23], the IC50 (Example A-1(a)) fell in the range of 0.2 to 2 µM.

For `CCn1ccc2cc(C(=O)N[C@H]3CCc4cc(N5CC6CCC(C5)N6)ccc4C3)nnc21` (single isomer, unassigned) [Example 11-24], the IC50 (Example A-1(a)) lay within 0.2 to 2 µM.

Take `Cc1ccc2c(N)c(C(=O)N[C@H]3CCc4cc(N5C6CNCC5C6)ccc4C3)sc2n1` (single isomer, unassigned) [Example 11-35]: the IC50 (format Example A-1(a)) was 0.001 to 0.05 µM.

`Cc1ccc2c(N)c(C(=O)N[C@@H]3CCc4cc(N5C6CNCC5C6)ccc4C3)sc2n1` (single isomer, unassigned) [Example 11-36]: under “format Example A-1(a)”, the IC50 fell in the range of 0.2 to 2 µM.

As to `Cc1nc2sc(C(=O)N[C@H]3CCc4cc(N5CC6CCC(C5)N6)ccc4C3)c(N)c2s1` (single isomer, unassigned) [Example 12-1], the IC50 (format Example A-1(a)) fell in the range of 0.2 to 2 µM.

On to `Cc1ccc2c(N)c(C(=O)N[C@H]3COc4c(F)c(N5CC6CCC(C5)N6)cc(F)c4C3)sc2n1` (single isomer, unassigned) [Example 13-1], for which the IC50 (format Example A-1(a)) was 0.001 to 0.05 µM.

Regarding `Cc1ccc2c(N)c(C(=O)N[C@@H]3COc4c(F)c(N5CC6CCC(C5)N6)cc(F)c4C3)sc2n1` (single isomer, unassigned) [Example 13-2], the IC50 (format Example A-1(a)) fell in the range of 0.2 to 2 µM.

Take `Cc1ccc2c(N)c(C(=O)N[C@@H]3COc4cc(N5CCNCC5)c(Cl)cc4C3)sc2n1` (single isomer, unassigned) [Example 13-6]: for the setting “format Example A-1(a)”, the IC50 is 0.001 to 0.05 µM.

On to `Cc1nc2sc(C(=O)N[C@@H]3CCc4c(C#N)c(N5CC6CCC(C5)N6)cc(F)c4C3)c(N)c2s1` (single isomer, unassigned) [Example 14-22], for which the IC50 (format Example A-1(a)) lay within 0.2 to 2 µM.

With `Cc1ccc2c(N)c(C(=O)N[C@@H]3CCc4cc(N5CCNCC5)cnc4C3)sc2n1` (single isomer, unassigned) [Example 15-1], the IC50 (format Example A-1(a)) was above 2 µM.

In the case of `Cc1ccc2c(N)c(C(=O)N[C@H]3CCc4cc(N5CCNCC5)cnc4C3)sc2n1` (single isomer, unassigned) [Example 15-2], the IC50 (format Example A-1(a)) fell in the range of 0.2 to 2 µM.

Turning to `Cc1ccc2c(N)c(C(=O)N[C@@H]3CCc4c(ccc(N5CC6CCC(C5)N6)c4F)C3)sc2n1` (single isomer, unassigned) [Example 21-1], the IC50 (format Example A-1(a)) was in the range of 0.05 to 0.2 µM.

As to `Cc1ccc2c(N)c(C(=O)N[C@H]3CCc4c(ccc(N5CC6CCC(C5)N6)c4F)C3)sc2n1` (single isomer, unassigned) [Example 21-2], for the setting “format Example A-1(a)”, the IC50 is 0.001 to 0.05 µM.

For `Cc1ccc2c(N)c(C(=O)N[C@@H]3CCc4cc(N5CC6CCC(C5)N6)c(F)cc4C3)sc2n1` (single isomer, unassigned) [Example 21-3], the IC50 (format Example A-1(a)) is 0.001 to 0.05 µM.

Consider `Cc1ccc2c(N)c(C(=O)N[C@H]3CCc4cc(N5CC6CCC(C5)N6)c(F)cc4C3)sc2n1` (single isomer, unassigned) [Example 21-4], for which, where the note is “format Example A-1(a)”, the IC50 fell in the range of 0.2 to 2 µM.

With `Cc1ccc2c(N)c(C(=O)N[C@@H]3CCc4c(ccc(N5CCNCC5)c4F)C3)sc2n1` (single isomer, unassigned) [Example 21-5], the IC50 (format Example A-1(a)) is 0.001 to 0.05 µM.

Take `Cc1ccc2c(N)c(C(=O)N[C@H]3CCc4c(ccc(N5CCNCC5)c4F)C3)sc2n1` (single isomer, unassigned) [Example 21-6]: the IC50 (format Example A-1(a)) was 0.2 to 2 µM.

As to `Cc1ccc2c(N)c(C(=O)N[C@@H]3CCc4cc(N5CCNCC5)c(F)cc4C3)sc2n1` (single isomer, unassigned) [Example 21-7], the IC50 (format Example A-1(a)) was in the range of 0.05 to 0.2 µM.
